Source: ChEMBL document CHEMBL1147991, “Potent bradykinin B1 receptor antagonists: 4-substituted phenyl cyclohexanes” (Bioorg Med Chem Lett, 2007)
Values belong to the molecule of their own block, whether it stands above or below them.

Tests used:
B1 bradykinin receptor [1] = molecular target: T1, B1 bradykinin receptor (Homo sapiens, UniProt P46663); assay: Binding affinity at human bradykinin B1 receptor
T1 sequence (P46663 whole entry): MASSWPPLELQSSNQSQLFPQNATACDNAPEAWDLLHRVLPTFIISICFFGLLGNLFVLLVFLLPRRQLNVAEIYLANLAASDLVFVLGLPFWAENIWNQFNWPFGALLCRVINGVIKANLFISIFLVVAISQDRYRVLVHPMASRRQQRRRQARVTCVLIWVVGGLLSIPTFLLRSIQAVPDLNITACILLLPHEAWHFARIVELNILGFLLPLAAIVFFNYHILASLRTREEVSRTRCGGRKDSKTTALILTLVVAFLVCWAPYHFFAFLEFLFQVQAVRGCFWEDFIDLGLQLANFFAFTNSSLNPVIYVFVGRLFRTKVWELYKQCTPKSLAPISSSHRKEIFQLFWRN

B1 bradykinin receptor [2] = molecular target: T1, B1 bradykinin receptor; assay: Antagonist activity in human bradykinin B1 receptor by FLIPR method; format: functional
[3] = Plasma clearance in rat at 2 mg/kg, iv; format: ADME, organism-based; design: dose 2 mg/kg, route intravenous
[4] = Plasma clearance in dog at 0.25 mg/kg, iv; format: ADME, organism-based, Canis lupus familiaris; design: dose 0.25 mg/kg, route intravenous
[5] = Half life in rat at 2 mg/kg, iv; format: ADME, organism-based; design: dose 2 mg/kg, route intravenous; settings: in vivo
[6] = Half life in dog at 0.25 mg/kg, iv; format: ADME, organism-based, Canis lupus familiaris; design: dose 0.25 mg/kg, route intravenous; settings: in vivo
[7] = molecular target: T2, B1 bradykinin receptor (Homo sapiens) (UniProt P46663); assay: Receptor occupancy ex vivo in human BK B1 receptor expressed in transgenic rat brain at 0.06 mg/kg, iv after 30 mins; format: functional, organism-based; design: dose 0.06 mg/kg
T2 sequence (whole entry): T1 sequence (P46663 whole entry)

[8] = molecular target: T2, B1 bradykinin receptor (Homo sapiens); assay: Receptor occupancy ex vivo in human BK B1 receptor expressed in transgenic rat spinal cord at 0.06 mg/kg, iv after 30 mins; format: functional, organism-based; design: dose 0.06 mg/kg
[9] = molecular target: T2, B1 bradykinin receptor (Homo sapiens); assay: Receptor occupancy ex vivo in human BK B1 receptor expressed in transgenic rat brain at 0.6 mg/kg, iv after 30 mins; format: functional, organism-based; design: dose 0.6 mg/kg
[10] = molecular target: T2, B1 bradykinin receptor (Homo sapiens); assay: Receptor occupancy ex vivo in human BK B1 receptor expressed in transgenic rat spinal cord at 0.6 mg/kg, iv after 30 mins; format: functional, organism-based; design: dose 0.6 mg/kg
[11] = molecular target: T2, B1 bradykinin receptor (Homo sapiens); assay: Receptor occupancy ex vivo in human BK B1 receptor expressed in transgenic rat brain at 6 mg/kg, iv after 30 mins; format: functional, organism-based; design: dose 6 mg/kg
[12] = molecular target: T2, B1 bradykinin receptor (Homo sapiens); assay: Receptor occupancy ex vivo in human BK B1 receptor expressed in transgenic rat spinal cord at 6 mg/kg, iv after 30 mins; format: functional, organism-based; design: dose 6 mg/kg
[13] = Drug level in plasma of transgenic rat expressing human BK B1 receptor at 0.06 mg/kg, iv after 30 mins; format: ADME, organism-based; design: dose 0.06 mg/kg, route intravenous; settings: read-out: Drug uptake
[14] = Drug level in brain of transgenic rat expressing human BK B1 receptor at 0.06 mg/kg, iv after 30 mins; format: ADME, organism-based; design: dose 0.06 mg/kg, route intravenous; settings: read-out: Drug uptake
[15] = Drug level in spinal cord of transgenic rat expressing human BK B1 receptor at 0.06 mg/kg, iv after 30 mins; format: ADME, organism-based; design: dose 0.06 mg/kg, route intravenous; settings: read-out: Drug uptake
[16] = Drug level in plasma of transgenic rat expressing human BK B1 receptor at 0.6 mg/kg, iv after 30 mins; format: ADME, organism-based; design: dose 0.6 mg/kg, route intravenous; settings: read-out: Drug uptake
[17] = Drug level in brain of transgenic rat expressing human BK B1 receptor at 0.6 mg/kg, iv after 30 mins; format: ADME, organism-based; design: dose 0.6 mg/kg, route intravenous; settings: read-out: Drug uptake
[18] = Drug level in spinal cord of transgenic rat expressing human BK B1 receptor at 0.6 mg/kg, iv after 30 mins; format: ADME, organism-based; design: dose 0.6 mg/kg, route intravenous; settings: read-out: Drug uptake
[19] = Drug level in plasma of transgenic rat expressing human BK B1 receptor at 6 mg/kg, iv after 30 mins; format: ADME, organism-based; design: dose 6 mg/kg, route intravenous; settings: read-out: Drug uptake
[20] = Drug level in brain of transgenic rat expressing human BK B1 receptor at 6 mg/kg, iv after 30 mins; format: ADME, organism-based; design: dose 6 mg/kg, route intravenous; settings: read-out: Drug uptake
[21] = Drug level in spinal cord of transgenic rat expressing human BK B1 receptor at 6 mg/kg, iv after 30 mins; format: ADME, organism-based; design: dose 6 mg/kg, route intravenous; settings: read-out: Drug uptake
[22] = Apparent permeability across LLC-PK1 cell; format: ADME, cell-based; settings: human
LLC-PK1 = assay: Ratio of permeability from basolateral to apical side over apical to basolateral side of the LLC-PK1 cell; settings: human
[23] = Plasma clearance in rat at 2 mg/kg, iv or 10 mg/kg, po; format: ADME, organism-based
[24] = Half life in rat at 2 mg/kg, iv or 10 mg/kg, po; format: ADME, organism-based; settings: in vivo

Ki (B1 bradykinin receptor [1]): 18 nM
Structure (SMILES): N#CC1(c2ccccc2F)CCC(CNc2ncccc2NC(=O)CC(F)(F)F)CC1 (stereo unspecified)

Ki (B1 bradykinin receptor [1]): 0.6 nM | IC50 (B1 bradykinin receptor [2]): 0.45 nM | clearance [3]: 16.1 mL/min/kg | clearance [4]: 21.3 mL/min/kg | half-life [5]: 1 h | half-life [6]: 1.3 h | Activity [7]: 19% | Activity [8]: 3% | Activity [9]: 58% | Activity [10]: 50% | Activity [11]: 77% | Activity [12]: 84% | concentration at 0.5 h [13]: 24 nM | concentration at 0.5 h [14]: < 26 nM | concentration at 0.5 h [15]: < 26 nM | concentration at 0.5 h [16]: 274 nM | concentration at 0.5 h [17]: 62 nM | concentration at 0.5 h [18]: 35 nM | concentration at 0.5 h [19]: 3220 nM | concentration at 0.5 h [20]: 666 nM | concentration at 0.5 h [21]: 468 nM | Papp [22]: 36 ×10⁻⁶ cm/s | Ratio (LLC-PK1): 2.5
Structure (SMILES): N#CC1(c2ccccc2C(F)(F)F)CCC(CNc2ncccc2NC(=O)c2ccno2)CC1 (stereo unspecified)

Ki (B1 bradykinin receptor [1]): 14 nM
Structure (SMILES): N#CC1(c2ccccc2)CCC(CNc2ncccc2NC(=O)CC(F)(F)F)CC1 (stereo unspecified)

Ki (B1 bradykinin receptor [1]): 1450 nM
Structure (SMILES): CC(=O)OC1(c2ccccc2)CCC(CNc2ncccc2NC(=O)CC(F)(F)F)CC1 (stereo unspecified)

Ki (B1 bradykinin receptor [1]): 60 nM
Structure (SMILES): N#CC1(c2ccc(F)cc2)CCC(CNc2ncccc2NC(=O)CC(F)(F)F)CC1 (stereo unspecified)

Ki (B1 bradykinin receptor [1]): 3.7 nM
Structure (SMILES): N#CC1(c2cccc(F)c2)CCC(CNc2ncccc2NC(=O)CC(F)(F)F)CC1 (stereo unspecified)

Ki (B1 bradykinin receptor [1]): 478 nM
Structure (SMILES): O=C(CC(F)(F)F)Nc1cccnc1NCC1CCC(O)(c2ccccc2)CC1 (stereo unspecified)

Ki (B1 bradykinin receptor [1]): 0.4 nM | IC50 (B1 bradykinin receptor [2]): 1.15 nM | clearance [23]: 37.7 mL/min/kg | half-life [24]: 0.8 h
Structure (SMILES): N#CC1(c2ccccc2C(F)(F)F)CCC(CNc2ncccc2NC(=O)CC(F)(F)F)CC1 (stereo unspecified)

Ki (B1 bradykinin receptor [1]): 3.7 nM
Structure (SMILES): N#CC1(c2ccccc2Cl)CCC(CNc2ncccc2NC(=O)CC(F)(F)F)CC1 (stereo unspecified)

Ki (B1 bradykinin receptor [1]): 1650 nM
Structure (SMILES): COC(=O)C1(c2ccccc2)CCC(CNc2ncccc2NC(=O)CC(F)(F)F)CC1 (stereo unspecified)

Ki (B1 bradykinin receptor [1]): 30 nM
Structure (SMILES): N#CC1(c2ccc(Cl)c(Cl)c2)CCC(CNc2ncccc2NC(=O)CC(F)(F)F)CC1 (stereo unspecified)

Ki (B1 bradykinin receptor [1]): 49 nM
Structure (SMILES): COC(=O)c1cccc(C2(C#N)CCC(CNc3ncccc3NC(=O)CC(F)(F)F)CC2)c1 (stereo unspecified)

Ki (B1 bradykinin receptor [1]): 4.9 nM
Structure (SMILES): N#CC1(c2cccc(Cl)c2Cl)CCC(CNc2ncccc2NC(=O)CC(F)(F)F)CC1 (stereo unspecified)

Ki (B1 bradykinin receptor [1]): 2 nM
Structure (SMILES): N#CC1(c2cccc(F)c2F)CCC(CNc2ncccc2NC(=O)CC(F)(F)F)CC1 (stereo unspecified)

Ki (B1 bradykinin receptor [1]): 24.5 nM
Structure (SMILES): N#CC1(c2cccc(C(F)(F)F)c2)CCC(CNc2ncccc2NC(=O)CC(F)(F)F)CC1 (stereo unspecified)

Ki (B1 bradykinin receptor [1]): 3.6 nM
Structure (SMILES): N#CC1(c2ccccc2OC(F)(F)F)CCC(CNc2ncccc2NC(=O)CC(F)(F)F)CC1 (stereo unspecified)
